A short description of series [1]: Caco-2 AB intrinsic permeability. The class given is in vitro ADME. The settings on record: human, A to B intrinsic, n = 1 or average (n = 2), read-out: Caco2 AB Intrinsic Papp. The method, then:
Caco-2 cell permeability was measured as described in Mol Pharm 2017, 14, 1601.
Background: Caco-2 cells form a polarised layer with tight junctions and transporters.

A short description of series [2]: Metabolic stability in human liver microsomes (HLM). The series is classed as in vitro ADME. The settings on record: n = 1 or average (n = 2-3). The protocol: Metabolic stability in HLM was measured as described in J Comput Aided Mol Des 2015, 29, 795.
Series [3] addresses T1, hFAP (M39-A757) (Homo sapiens, UniProt Q12884).
T1 sequence (Q12884 39-757): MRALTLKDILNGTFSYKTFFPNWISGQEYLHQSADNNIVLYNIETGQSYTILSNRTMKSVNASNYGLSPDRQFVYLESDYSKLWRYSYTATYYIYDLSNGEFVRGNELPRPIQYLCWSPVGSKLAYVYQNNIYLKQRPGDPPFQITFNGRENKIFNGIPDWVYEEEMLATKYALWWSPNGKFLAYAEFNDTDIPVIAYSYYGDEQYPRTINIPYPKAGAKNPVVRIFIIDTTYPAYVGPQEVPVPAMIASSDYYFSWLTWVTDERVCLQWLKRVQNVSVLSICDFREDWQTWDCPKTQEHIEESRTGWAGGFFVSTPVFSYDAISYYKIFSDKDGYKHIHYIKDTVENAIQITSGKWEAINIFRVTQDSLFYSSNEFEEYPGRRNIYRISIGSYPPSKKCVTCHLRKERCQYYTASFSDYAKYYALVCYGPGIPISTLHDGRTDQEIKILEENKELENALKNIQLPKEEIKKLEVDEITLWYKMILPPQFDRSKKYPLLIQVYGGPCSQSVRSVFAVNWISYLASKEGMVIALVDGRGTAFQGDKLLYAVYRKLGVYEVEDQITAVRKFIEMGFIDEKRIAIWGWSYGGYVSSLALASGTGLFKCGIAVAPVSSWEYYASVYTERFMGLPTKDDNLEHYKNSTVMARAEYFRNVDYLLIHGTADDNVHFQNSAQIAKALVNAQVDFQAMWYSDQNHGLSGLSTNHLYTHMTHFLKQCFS
Kind of series: biochemical.
Experimental: Compounds were tested in a direct binding assay using 8K surface plasmon resonance biosensor (GE Healthcare) at 20° C. Immobilization of hFAP (M39-A757) on a CMD200M sensor chip (Xantec) was performed using standard amine coupling procedure in immobilization buffer (10 mM HEPES, 150 mM NaCl, 0.05% Tween20, pH 7.4). The surface was washed with 10 mM aq NaOH, 1M NaCl before being activated with EDC/NHS (GE Healthcare), followed by immobilization of hFAP (in 10 mM Acetate pH 5.0). Finally, the surface was deactivated by ethanolamine. Immobilization levels of hFAP were around 4000-6000 RU. The reference spot was treated as described, omitting the injection of hFAP. Compound concentration series were injected over the immobilized protein in increasing concentrations (2-500 nM) using single cycle kinetics in running buffer (20 mM TRIS, 150 mM NaCl, 0.05% Tween20, 1% DMSO, pH 7.4). Interaction models were fitted globally to the experimental traces, enabling determination of kon, koff and Kd.

Series [4] deals with Rat Hepatocytes (rHep). Kind of series: Metabolic stability in rat hepatocytes (rHep). The series is classed as in vitro ADME. The settings on record: n = 1 or geometric mean (n = 2-3). The protocol: Metabolic stability in rat hepatocytes was measured as described in J Comput Aided Mol Des 2015, 29, 795.
For series [5], the target named is T2, Prolyl endopeptidase, Prolyl Oligopeptidase (hPREP) (Homo sapiens, UniProt P48147).
T2 sequence (P48147 1-710): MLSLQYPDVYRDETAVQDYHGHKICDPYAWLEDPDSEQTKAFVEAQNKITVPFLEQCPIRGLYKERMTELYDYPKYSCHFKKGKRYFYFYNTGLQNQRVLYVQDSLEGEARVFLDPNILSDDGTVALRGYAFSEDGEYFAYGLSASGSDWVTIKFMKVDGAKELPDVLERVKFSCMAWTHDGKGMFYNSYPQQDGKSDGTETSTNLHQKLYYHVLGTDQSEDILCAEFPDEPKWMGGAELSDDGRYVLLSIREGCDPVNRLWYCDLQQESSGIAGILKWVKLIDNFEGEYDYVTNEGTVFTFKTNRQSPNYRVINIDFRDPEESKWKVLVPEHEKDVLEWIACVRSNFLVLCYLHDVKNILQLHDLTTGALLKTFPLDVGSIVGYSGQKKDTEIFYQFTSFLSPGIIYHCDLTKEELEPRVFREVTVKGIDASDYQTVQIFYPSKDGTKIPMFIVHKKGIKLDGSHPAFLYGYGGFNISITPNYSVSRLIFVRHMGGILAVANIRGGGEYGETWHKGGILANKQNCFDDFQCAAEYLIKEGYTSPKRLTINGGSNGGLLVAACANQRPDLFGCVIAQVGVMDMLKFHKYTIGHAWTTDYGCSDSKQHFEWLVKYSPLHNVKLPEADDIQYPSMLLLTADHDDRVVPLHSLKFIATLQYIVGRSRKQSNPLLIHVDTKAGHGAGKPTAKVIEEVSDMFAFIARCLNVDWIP
In words: biochemical.
Experimental: Compounds were tested in a biochemical inhibition assay using Prolyl endopeptidase, Prolyl Oligopeptidase (hPREP) enzyme at 0.6 nM FAC (R&D Systems, 4308-SE) and the substrate Z-Gly-Pro-amino-methylcoumarin (Bachem, I-1145) at 50 μM FAC. 384 Low volume black plates (Greiner #784076) were used. […] Plates were incubated for 15 min at rt in dark. 4 μL, 100 μM substrate solution (25 mM Tris HCl, 250 mM NaCl, 0.01% Triton X-100, 5 mM Glutathione, pH 7.5) was added to each well. Plates were centrifuged at 1000 rpm and incubated for 20 min at rt in dark. The plates were read on a PHERAstar® reader with excitation 340 nm and emission 460 nm. Data were analyzed in Genedata Screener®. IC50 values were determined by plotting % inhibition versus log compound concentration and using a one site dose response model.

Series [6] in a line: Kinetic solubility. The series is classed as physicochemical. The following applies: kinetic from dmso stock, n = 1 or average (n = 2-4). The method, then: Kinetic solubility was measured as described in Comput Aided Mol Des 2015, 29, 795.
Series [7] concerns the target T3, human dipeptidylpeptidase 9 (hDPP9) (Homo sapiens, UniProt Q86TI2).
T3 construct: purchased BPS Bioscience 80090
Kind of series: hDPP9 inhibition assay. The series is classed as biochemical. The following applies: hDPP9 0.4 nM, Ala-Pro-amino-methylcoumarin 5 μM; n = 1. The protocol: (§1) Compounds were tested in a biochemical inhibition assay using human dipeptidylpeptidase 9 (hDPP9) enzyme at 0.4 nM FAC (BPS Bioscience, #80090) and the substrate Ala-Pro-amino-methylcoumarin (BPS Bioscience #80305) at 5 μM FAC. The enzymatic reactions were conducted in duplicate at rt for 30 min in 50 μL DPP assay buffer (BPS Bioscience, #80300). Compound solutions (in DMSO) at 10 CR, 3 fold dilution series were prepared in assay buffer ten-fold higher than the final concentration, and 5 μL of the dilution was added to a 50 μL reaction so that the highest compound concentration was 100 μM FAC and the concentration of DMSO was 1% in all wells. The plates were read on a Tecan Infinite M1000 microplate reader with excitation 340 nm and emission 460 nm. Data were analyzed in Graph Pad Prism. […] Raw data signals were normalized using 1% DMSO as 0% control and no enzyme as 100% inhibitor control.

In series [8] the target is T4, human dipeptidylpeptidase 7 (hDPP7) (Homo sapiens, UniProt Q9UHL4).
T4 construct: purchased BPS Bioscience 80070
Kind of series: hDPP7 inhibition assay. The class given is biochemical. The settings on record: hDPP7 15 nM, Ala-Pro-amino-methylcoumarin 5 μM; n = 1. The method, then: Compounds were tested in a biochemical inhibition assay using human dipeptidylpeptidase 7 (hDPP7) enzyme at 15 nM FAC (BPS Bioscience, #80070) and the substrate Ala-Pro-amino-methylcoumarin (BPS Bioscience, #80305) at 5 μM FAC. The enzymatic reactions were conducted in duplicate at rt for 30 min in 50 μL DPP assay buffer (BPS Bioscience, #80300). Compound solutions (in DMSO) at 10 CR, 3 fold dilution series were prepared in assay buffer ten-fold higher than the final concentration, and 5 μL of the dilution was added to a 50 μL reaction so that the highest compound concentration was 100 μM FAC and the concentration of DMSO was 1% in all wells. The plates were read on a Tecan Infinite M1000 microplate reader with excitation 340 nm and emission 460 nm. Data were analyzed in Graph Pad Prism. […] Raw data signals were normalized using 1% DMSO as 0% control and no enzyme as 100% inhibitor control.

For series [9], the target named is T5, human dipeptidylpeptidase 8 (hDPP8) (Homo sapiens, UniProt Q6V1X1).
T5 construct: purchased BPS Bioscience 80080
T5 sequence (Q6V1X1 whole entry): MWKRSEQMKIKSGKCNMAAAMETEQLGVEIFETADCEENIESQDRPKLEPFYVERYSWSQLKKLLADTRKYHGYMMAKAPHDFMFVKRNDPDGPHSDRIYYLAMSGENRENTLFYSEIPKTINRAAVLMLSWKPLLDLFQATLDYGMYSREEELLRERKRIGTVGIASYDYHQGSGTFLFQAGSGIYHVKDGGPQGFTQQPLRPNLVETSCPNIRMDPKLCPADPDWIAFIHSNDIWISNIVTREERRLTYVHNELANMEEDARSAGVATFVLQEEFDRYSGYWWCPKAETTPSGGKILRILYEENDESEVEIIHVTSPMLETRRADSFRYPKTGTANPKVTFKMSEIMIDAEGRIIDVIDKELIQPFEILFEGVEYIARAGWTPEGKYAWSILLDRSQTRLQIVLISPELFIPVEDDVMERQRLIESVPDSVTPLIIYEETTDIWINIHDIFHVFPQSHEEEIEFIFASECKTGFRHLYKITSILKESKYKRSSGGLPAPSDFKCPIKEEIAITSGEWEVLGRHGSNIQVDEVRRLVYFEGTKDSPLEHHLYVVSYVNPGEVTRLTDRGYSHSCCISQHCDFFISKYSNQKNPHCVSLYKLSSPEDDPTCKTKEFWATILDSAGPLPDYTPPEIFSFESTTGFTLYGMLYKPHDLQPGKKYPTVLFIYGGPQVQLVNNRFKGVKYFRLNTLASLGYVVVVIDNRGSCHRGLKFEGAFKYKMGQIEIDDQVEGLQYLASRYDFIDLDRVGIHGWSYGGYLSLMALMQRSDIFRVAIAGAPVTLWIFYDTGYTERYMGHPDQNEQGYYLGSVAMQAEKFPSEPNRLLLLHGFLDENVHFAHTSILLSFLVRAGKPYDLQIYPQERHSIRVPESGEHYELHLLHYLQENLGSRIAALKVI
Kind of series: hDPP8 inhibition assay. The class given is biochemical. The settings on record: hDPP8 1.5 nM, Ala-Pro-amino-methylcoumarin 5 μM; n = 1. The method, then:
as §1, with “8 (hDPP8)” for “9 (hDPP9)”, “1.5” for “0.4”, “#80080)” for “#80090)”

Structures are written as SMILES.
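Wherever Kd is given: surface plasmon resonance direct binding to hFAP amine-coupled on a sensor chip, rising compound concentrations by single cycle kinetics, Kd from global fit of interaction models.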

T3 sequence (Q86TI2 whole entry): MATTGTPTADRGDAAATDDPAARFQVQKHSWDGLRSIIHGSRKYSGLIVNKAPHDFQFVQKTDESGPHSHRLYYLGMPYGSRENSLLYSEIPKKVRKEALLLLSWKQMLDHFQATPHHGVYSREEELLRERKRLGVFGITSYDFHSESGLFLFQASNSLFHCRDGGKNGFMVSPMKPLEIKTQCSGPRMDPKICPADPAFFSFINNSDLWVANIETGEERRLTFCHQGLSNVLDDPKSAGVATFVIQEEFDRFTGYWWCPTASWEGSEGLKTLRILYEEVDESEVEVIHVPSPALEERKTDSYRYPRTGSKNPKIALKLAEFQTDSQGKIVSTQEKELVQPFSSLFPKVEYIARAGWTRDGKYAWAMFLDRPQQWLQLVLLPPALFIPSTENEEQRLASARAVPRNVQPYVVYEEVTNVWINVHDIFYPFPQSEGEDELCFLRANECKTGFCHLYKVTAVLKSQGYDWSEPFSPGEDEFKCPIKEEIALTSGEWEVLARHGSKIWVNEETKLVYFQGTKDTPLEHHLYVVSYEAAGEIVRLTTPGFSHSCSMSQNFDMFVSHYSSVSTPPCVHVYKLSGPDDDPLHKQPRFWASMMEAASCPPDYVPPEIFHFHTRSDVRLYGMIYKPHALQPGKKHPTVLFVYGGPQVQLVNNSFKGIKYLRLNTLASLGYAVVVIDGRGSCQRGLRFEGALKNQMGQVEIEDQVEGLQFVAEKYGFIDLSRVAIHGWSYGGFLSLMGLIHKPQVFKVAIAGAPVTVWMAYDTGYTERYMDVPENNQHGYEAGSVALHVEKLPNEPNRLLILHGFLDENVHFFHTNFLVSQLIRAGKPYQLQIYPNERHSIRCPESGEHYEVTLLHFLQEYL

As for `COCCOc1ccc2nccc(C(=O)NCC(=O)N3CSC[C@H]3C#N)c2c1` [Example 4, (R)—N-(2-(4-Cyanothiazolidin-3-yl)-2-oxoethyl)-6-(2-methoxyethoxy)quinoline-4-carboxamide], the Papp A→B in [1] came to 10 ×10⁻⁶ cm/s. Further, in series [2], the microsomal CLint (as a rule, the rate of metabolic loss divided by the concentration) was less than 3 µL/min/mg. For the same compound, the Kd (commonly the concentration at which binding is half-saturated) in series [3] was determined as 0.057 nM. Further, the “rHeps CLint” value in [4] is listed as less than 1 μL/min/1E6. Besides, in series [5], the IC50 – broadly, the concentration needed to halve the response being measured – turned out to be 570 nM. For the same compound, in series [6], the solubility (commonly how much of the substance goes into solution per volume) was greater than 1000 µM.

Take `N#C[C@@H]1CSCN1C(=O)CNC(=O)c1ccnc2ccc(OC3CCOCC3)cc12` [Example 6, (R)—N-(2-(4-Cyanothiazolidin-3-yl)-2-oxoethyl)-6-((tetrahydro-2H-pyran-4-yl)oxy)quinoline-4-carboxamide]: the IC50 in [7] is 2900 nM; in [5] it was 1200 nM; in series [8] it was greater than 100000 nM; in series [9], 6400 nM.

Values taken from patent US20260070899A1, “N-(2-(4-CYANOTHIAZOLIDIN-3-YL)-2-OXOETHYL)-QUINOLINE-4-CARBOXAMIDES” (AstraZeneca AB, priority 2022, published 2026).
